What was measured:
Tie2 = Tie2 (Homo sapiens, UniProt Q02763); test: Tie2 ELISA assay (assay 1): Ang2-stimulated Tie2 autophosphorylation in transfected CHO cells; format: cell-based; set-up: expressed in transfected cells; host or cells: CHO (DHFR selection); conditions: CHO Tie2/DHFR cells stimulated by angiopoietin-2, pIC50 = -log IC50 in molar concentration, read-out: Tie 2 activity (assay 1)
Method: Cellular activity of compounds of the present invention as inhibitors of Tie2 kinase activity was measured employing a Tie2 ELISA assay as described in the following paragraphs. Herein CHO cell-cultures, which are stably transfected by known techniques with Tie2 using DHFR deficiency as selection marker, are stimulated by angiopoietin-2. The specific autophosphorylation of Tie2 receptors is quantified with a sandwich-ELISA using anti-Tie2 antibodies for catch and anti-phosphotyrosine antibodies coupled to HRP for detection.
• 96 well tissue culture plate, sterile, Greiner • 96 well FluoroNunc plate MaxiSorp Surface C, Nunc • 96 well plate polypropylene for compound dilution in DMSO • CHO Tie2/DHFR (transfected cells) • PBS−; PBS++, DMSO • MEM alpha Medium with Glutamax-I without Ribonucleosides and Deoxyribonucleosides (Gibco #32561-029) with 10% FCS after dialysis! and 1% PenStrep • Lysis buffer: 1 Tablet “Complete” protease inhibitor • 1 cap Vanadate (1 mL>40 mg/mL; working solution 2 mM) • ad 50 mL with Duschl-Puffer • pH 7.6 • Anti-Tie2-antibody 1:425 in Coating Buffer pH 9.6 • Stock solution: 1.275 mg/mL>working: 3 μg/mL • PBST: 2 bottles PBS (10×)+10 ml Tween, fill up with VE-water • RotiBlock 1:10 in VE-water • Anti-Phosphotyrosine HRP-Conjugated 1:10000 in 3% TopBlock • 3% TopBlock in PBST • BM Chemiluminescence ELISA Substrate (POD) • solution B 1:100 solution A • SF9 cell culture medium • Ang2-Fc in SF9 cell culture medium Cell Experiment: • Dispense 5×10^4 cells/well/98 μL in 96 well tissue culture plate • Incubate at 37° C./5% CO2 • After 24 h add compounds according to desired concentrations • Add also to control and stimulated values without compounds 2 μL DMSO • And mix for a few min at room temperature • Add 100 μL Ang2-Fc to all wells except control, which receives insect medium • Incubate 20 min at 37° C. • Wash 3× with PBS++ • Add 100 μl Lysis buffer/well and shake a couple of min at room temperature • Store lysates at […] before utilizing for the ELISA Performance of Sandwich-ELISA • Coat 96 well FluoroNunc Plate MaxiSorp Surface C with anti-Tie2 mAb • 1:425 in Coating buffer pH 9.6; 100 μL/well overnight at 4° C. • Wash 2× with PBST • Block plates with 250 μL/well RotiBlock 1:10 in VE-water • Incubate for 2 h at room temperature or overnight at 4° C. shaking • Wash 2× in PBST • Add thawed lysates to wells and incubate overnight shaking at 4° C. • Wash 2× with PBST • Add 100 μL/well anti-Phosphotyrosine HRP-Conjugated 1:10000 in 3% • TopBlock (3% TopBlock in PBST) and incubate overnight under shaking • Wash 6× with PBST • Add 100 μL/well BM Chemiluminescence ELISA Substrate (POD) • solutions 1 und 2 (1:100) • Determine luminescence with the LumiCount. Assay 2: Tie-2-Kinase HTRF-Assay Without Kinase Preactivation

Aurora-C = target: T1, Aurora-C (Homo sapiens, UniProt Q9UQB9); test: Aurora C HTRF assay (assay 5); format: biochemical; conditions: IC50 assay 5/IC50 assay 2
T1 construct: GST; made in house; host or cells: HEK293 (the text adds '(Sf9)', which contradicts this)
T1 sequence (Q9UQB9 1-309): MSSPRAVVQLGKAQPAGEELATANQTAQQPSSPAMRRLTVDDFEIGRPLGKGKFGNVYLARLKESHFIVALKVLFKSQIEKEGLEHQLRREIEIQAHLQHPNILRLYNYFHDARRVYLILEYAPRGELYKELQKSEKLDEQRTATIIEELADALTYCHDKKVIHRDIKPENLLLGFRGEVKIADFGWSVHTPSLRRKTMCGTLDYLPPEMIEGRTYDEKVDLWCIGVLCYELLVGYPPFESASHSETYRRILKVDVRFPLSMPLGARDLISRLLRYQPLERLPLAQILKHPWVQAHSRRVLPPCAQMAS
Text: Assay 5: Aurora C HTRF Assay
Aurora-C inhibitory activity of compounds of the present invention was quantified employing the Aurora-C HTRF assay as described in the following paragraphs.
Recombinant fusion protein of GST and human Aurora-C was expressed in transiently transfected HEK293 cells (Sf9) and purified by Glutathion-Sepharose affinity chromatography. As substrate for the kinase reaction biotinylated peptide biotin-Ttds-FMRLRRLSTKYRT (C-terminus in amid form) was used which can be purchased e.g. form the company JERINI peptide technologies (Berlin, Germany). Aurora-C was incubated for 60 min at 22° C. in the presence of different concentrations of test compounds in 5 μl assay buffer [25 mM Hepes/NaOH pH 7.4, 0.5 mM MnCl2, 2.0 mM dithiothreitol, 0.1 mM sodium ortho-vanadate, 10 μM adenosine-tri-phosphate (ATP), […] substrate, 0.01% (v/v) TritonX-100 (Sigma), 0.05% (w/v) bovine serum albumin, 1% (v/v) dimethylsulfoxide]. The concentration of Aurora-C was adjusted depending of the activity of the enzyme lot and was chosen appropriate to have the assay in the linear range, typical concentrations were in the range of 0.3 nM. The reaction was stopped by the addition of 5 μl of a solution of HTRF detection reagents (0.2 μM streptavidine-XLent and 1.4 nM Anti-Phospho-(Ser/Thr) Akt substrate-Cryptate (Cis biointernational, France, product no. 61P02KAE), a labeled Phospho-(Ser/Thr) Akt substrate antibody [product #9611B, Cell Signalling Technology, Danvers, Mass., USA] labeled with Europium Cryptate, in an aqueous EDTA-solution (40 mM EDTA, 400 mM KF, 0.05% (w/v) bovine serum albumin in 25 mM HEPES/NaOH pH 7.0).
The resulting mixture was incubated 1 h at 22° C. to allow the binding of the biotinylated phosphorylated peptide to the streptavidine-XLent and the Anti-Phospho-(Ser/Thr) Akt substrate-Cryptate. Subsequently the amount of phosphorylated substrate was evaluated by measurement of the resonance energy transfer from the Prot-A-EuK to the streptavidine-XLent. Therefore, the fluorescence emissions at 620 nm and 665 nm after excitation at 350 nm was measured in a HTRF reader, e.g. a Rubystar (BMG Labtechnologies, Offenburg, Germany) or a Viewlux (Perkin-Elmer). The ratio of the emissions at 665 nm and at […] was taken as the measure for the amount of phosphorylated substrate. The data were normalised (enzyme reaction without inhibitor=0% inhibition, all other assay components but no enzyme=100% inhibition) and IC50 values were calculated by a 4 parameter fit using an inhouse software.

Sequence of Tie2 (Q02763 23-1124, species assumed): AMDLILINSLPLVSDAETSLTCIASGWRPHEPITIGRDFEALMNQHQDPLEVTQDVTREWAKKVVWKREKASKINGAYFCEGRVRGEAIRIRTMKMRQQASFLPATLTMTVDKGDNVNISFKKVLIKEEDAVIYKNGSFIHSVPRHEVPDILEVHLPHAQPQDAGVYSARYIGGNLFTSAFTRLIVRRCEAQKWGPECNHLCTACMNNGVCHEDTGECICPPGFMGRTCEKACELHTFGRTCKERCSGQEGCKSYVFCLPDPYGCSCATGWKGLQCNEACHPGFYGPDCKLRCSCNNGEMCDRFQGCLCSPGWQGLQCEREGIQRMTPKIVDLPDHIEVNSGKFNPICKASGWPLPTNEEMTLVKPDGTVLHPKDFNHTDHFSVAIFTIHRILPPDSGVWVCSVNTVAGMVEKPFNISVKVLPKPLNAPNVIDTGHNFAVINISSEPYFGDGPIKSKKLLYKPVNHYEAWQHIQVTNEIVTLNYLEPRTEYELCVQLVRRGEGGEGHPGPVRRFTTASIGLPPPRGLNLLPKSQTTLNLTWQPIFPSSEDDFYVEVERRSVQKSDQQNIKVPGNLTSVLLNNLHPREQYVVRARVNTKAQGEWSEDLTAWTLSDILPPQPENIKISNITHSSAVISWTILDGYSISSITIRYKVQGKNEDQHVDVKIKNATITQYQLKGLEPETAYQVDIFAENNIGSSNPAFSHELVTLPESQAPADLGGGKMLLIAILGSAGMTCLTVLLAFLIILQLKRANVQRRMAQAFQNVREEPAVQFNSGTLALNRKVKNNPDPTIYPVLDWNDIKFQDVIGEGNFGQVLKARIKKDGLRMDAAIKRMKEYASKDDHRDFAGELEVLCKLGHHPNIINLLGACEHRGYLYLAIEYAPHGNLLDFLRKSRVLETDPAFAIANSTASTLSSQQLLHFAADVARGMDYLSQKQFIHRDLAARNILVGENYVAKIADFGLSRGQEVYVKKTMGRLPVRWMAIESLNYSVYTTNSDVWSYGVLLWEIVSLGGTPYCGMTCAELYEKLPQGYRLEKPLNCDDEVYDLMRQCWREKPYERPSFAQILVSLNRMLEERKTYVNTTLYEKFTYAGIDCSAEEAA

IC50 (Tie2)	Selectivity vs. Aurora C (Aurora-C)	SMILES
< 0.1 µM	>20 fold	Cc1ccc(C2(C(=O)Nc3ccc(-c4cnc5nc4NCCCNS(=O)(=O)c4cccc(c4)N5)cc3)CC2)cc1 [Example 1, 1-p-Tolyl-cyclopropane-carboxylic acid [4-(13,13-dioxo-13λ^6-thia-2,4,8,12,19-pentaaza-tricyclo[12.3.1.1^3,7]nonadeca-1(18),3(19),4,6, 14,16-hexaen-6-yl)-phenyl]-amide]
< 0.1 µM	>20 fold	Cc1ccccc1C1(C(=O)Nc2ccc(-c3cnc4nc3NCCCNS(=O)(=O)c3cccc(c3)N4)cc2)CC1 [Example 2, 1-o-Tolyl-cyclopropane-arboxylic acid [4-(13,13-dioxo-13λ^6-thia-2,4,8,12,19-pentaaza-tricyclo[12.3.1.1^3,7]nonadeca-1(18),3(19),4,6,14,16-hexaen-6-yl)-phenyl]-amide]
< 0.1 µM	>20 fold	COc1cccc(C2(C(=O)Nc3ccc(-c4cnc5nc4NCCCNS(=O)(=O)c4cccc(c4)N5)cc3)CC2)c1 [Example 3, 1-(3-Methoxy-phenyl)-cyclopropane-carboxylic acid [4-(13,13-dioxo-13λ^6-thia-2,4,8,12,19-pentaaza-tricyclo[12.3.1.1^3,7]nonadeca-1(18),3(19),4,6,14,16-hexaen-6-yl)-phenyl]-amide]
< 0.1 µM	>20 fold	COc1ccc(C2(C(=O)Nc3ccc(-c4cnc5nc4NCCCNS(=O)(=O)c4cccc(c4)N5)cc3)CC2)cc1 [Example 4, 1-(4-Methoxy-phenyl)-cyclopropane-carboxylic acid [4-(13,13-dioxo-13λ^6-thia-2,4,8,12,19-pentaaza-tricyclo[12.3.1.1^3,7]-nonadeca-1(18),3(19),4,6,14,16-hexaen-6-yl)-phenyl]-amide]
< 0.1 µM	>20 fold	O=C(Nc1ccc(-c2cnc3nc2NCCCNS(=O)(=O)c2cccc(c2)N3)cc1)C1(c2cccc(Cl)c2)CC1 [Example 5, 1-(3-Chloro-phenyl)-cyclopropane-arboxylic acid [4-(13,13-dioxo-13λ^6-thia-2,4,8,12,19-pentaaza-tricyclo[12.3.1.1^3,7]-nadeca-1(18),3(19),4,6,14,16-hexaen-6-yl)-phenyl]-amide]
< 0.1 µM	>20 fold	O=C(Nc1ccc(-c2cnc3nc2NCCCNS(=O)(=O)c2cccc(c2)N3)cc1)C1(c2ccc(Cl)cc2)CC1 [Example 6, 1-(4-Chloro-phenyl)-cyclopropane-carboxylic acid [4-(13,13-dioxo-13λ^6-thia-2,4,8,12,19-pentaaza-tricyclo[12.3.1.1^3,7]-nonadeca-1(18),3(19),4,6,14,16-hexaen-6-yl)-phenyl]-amide]
< 0.1 µM	>20 fold	O=C(Nc1ccc(-c2cnc3nc2NCCCNS(=O)(=O)c2cccc(c2)N3)cc1)C1(c2ccccc2F)CC1 [Example 7, 1-(2-Fluoro-phenyl)-cyclopropane-carboxylic acid [4-(13,13-dioxo-13λ^6-thia-2,4,8,12,19-pentaaza-tricyclo[12.3.1.1^3,7]nonadeca-1(18),3(19),4,6,14,16-hexaen-6-yl)-phenyl]-amide]
< 0.1 µM	>20 fold	O=C(Nc1ccc(-c2cnc3nc2NCCCNS(=O)(=O)c2cccc(c2)N3)cc1)C1(c2cccc(F)c2)CC1 [Example 8, 1-(3-Fluoro-phenyl)-cyclopropane-carboxylic acid [4-(13,13-dioxo-13λ^6-thia-2,4,8,12,19-pentaaza-tricyclo[12.3.1.1^3,7]nonadeca-1(18),3(19),4,6,14,16-hexaen-6-yl)-phenyl]-amide]
< 0.1 µM	>20 fold	O=C(Nc1ccc(-c2cnc3nc2NCCCNS(=O)(=O)c2cccc(c2)N3)cc1)C1(c2ccc(F)cc2)CC1 [Example 9, 1-(4-Fluoro-phenyl)-cyclopropane-carboxylic acid [4-(13,13-dioxo-13λ^6-thia-2,4,8,12,19-pentaaza-tricyclo[12.3.1.1^3.7]nonadeca-1(18),3(19),4,6,14,16-hexaen-6-yl)-phenyl]-amide]
< 0.1 µM	>20 fold	O=C(Nc1ccc(-c2cnc3nc2NCCCNS(=O)(=O)c2cccc(c2)N3)cc1)C1(c2cccc(C(F)(F)F)c2)CC1 [Example 10, 1-(3-Trifluoromethyl-phenyl)-cyclopropane-carboxylic acid [4-(13,13-dioxo-13λ^6-thia-2,4,8,12,19-pentaaza-tricyclo[12.3.1.1^3,7]nonadeca-1(18),3(19),4,6,14,16-hexaen-6-yl)-phenyl]-amide]
< 0.1 µM	>20 fold	O=C(Nc1ccc(-c2cnc3nc2NCCCNS(=O)(=O)c2cccc(c2)N3)cc1)C1(c2ccc(C(F)(F)F)cc2)CC1 [Example 11, 1-(4-Trifluoromethyl-phenyl)-cyclopropane-carboxylic acid [4-(13,13-dioxo-13λ^6-thia-2,4,8,12,19-pentaaza-tricyclo[12.3.1.1^3,7]nonadeca-1(18),3(19),4,6,14,16-hexaen-6-yl)-phenyl]-amide]
< 0.1 µM	>20 fold	O=C(Nc1ccc(-c2cnc3nc2NCCCNS(=O)(=O)c2cccc(c2)N3)cc1)C1(c2cc(C(F)(F)F)ccc2F)CC1 [Example 12, 1-(2-Fluoro-5-trifluoromethyl-phenyl)-cyclopropane-carboxylic acid [4-(13,13-dioxo-13λ^6-thia-2,4,8,12,19-pentaaza-tricyclo[12.3.1.1^3,7]-nonadeca-1(18),3(19),4,6,14,16-hexaen-6-yl)-phenyl]-amide]
